From patent publication US20100285959A1, “HERBICIDAL MIXTURES” (priority 2006, published 2010)

Tests used:
common ragweed (AMBEL) = test: Test 5 field trial, postemergence; format: in vivo, Ambrosia artemisiifolia; settings: atrazine 1120, glufosinate 470 or glyphosate 1120 g a.i./ha alone
Text: (§1) Corn seeds (hybrid ‘Pioneer 38H69’) were planted in mid spring season, 5.1 cm deep in a silty clay loam soil having 3% organic matter and a pH of 6.5. Plots were 9.1 m long by 3.0 m wide with rows spaced 76 cm apart. The field was managed using conventional tillage practices. […] All treatments included a surfactant except glufosinate treatments, both alone and in combination. […] Results are summarized in Table 5 and are the means of the three replicates.

velvetleaf (ABUTH) [1] = test: Test 6 field trial, postemergence; format: in vivo, Abutilon theophrasti; settings: 1120 g a.i./ha
Text: (§2) Corn seeds (hybrid ‘Pioneer 35Y62’) were planted in mid spring season, 3.8 cm deep in a silt loam soil having 4% organic matter and a pH of 5.8. Plots were 10.7 m long by 1.5 m wide with rows spaced 76 cm apart. Seeds were spaced 18 cm apart within the rows. The field was managed using conventional tillage practices. […] All treatments included a surfactant except glufosinate treatments, both alone and in combination. […] Results are summarized in Table 6 and are the means of the three replicates.

velvetleaf (ABUTH) [2] = test: Test 8 field trial, preemergence; format: in vivo, Abutilon theophrasti; settings: g a.i./ha: Cpd 2 100, Atrazine 1680, S-Metolachlor 1870
Text: Corn seeds (hybrid ‘Pioneer 31G96’) were planted in mid spring season, 3.8 cm deep in a clay loam soil having 2% organic matter and a pH of 6.6. Plots were 6.1 m long by 3.0 m wide with rows spaced 76 cm apart. Seeds were spaced 15 cm apart within the rows. The field was managed using conventional tillage practices. […] A few of the weed species could not be evaluated at every timing. […] Results are the means of the three replicates.

[3] = system: Pennsylvania smartweed (POLPY); test: Test 6 field trial, postemergence; format: in vivo, Polygonum pensylvanicum; settings: 1120 g a.i./ha
Text: as §2

shepherd's purse (CAPBP) = test: Test 5 field trial, postemergence; format: in vivo, Capsella bursa-pastoris; settings: atrazine 1120, glufosinate 470 or glyphosate 1120 g a.i./ha alone
Text: as §1

arrowleaf sida (SIDRH) = test: Test 11 field trial, preemergence; format: in vivo, Sida rhombifolia
Text: (§3) Corn seeds (hybrid ‘Pioneer 3041’) were planted in mid spring season, 5 cm deep in a clay soil having 2.6% organic matter and a pH of 5.6. Plots were 8 m long by 1.5 m wide with rows spaced 80 cm apart. Seeds were spaced 15 cm apart within the rows. The field was managed using conventional tillage practices. […] Treatments consisted of Compound 2 or
(§4) Goosegrass was not evaluated 16 or 91 days after application.

giant foxtail (SETFA) = test: Test 6 field trial, postemergence; format: in vivo, Setaria faberi; settings: 1120 g a.i./ha
Text: as §2

yellow foxtail (SETLU) [4] = test: Test 1 field trial, preemergence; format: in vivo, Setaria glauca; settings: 56 DAA; g a.i./ha: Atrazine 1680; S-Metolachlor 1870
Text: (§5) Corn seeds (hybrid ‘Pioneer 34N43’) were planted in mid spring season, 3.8 cm deep in a silt loam soil having 4.6% organic matter and a pH of 6. Plots were 10.7 m long by 1.5 m wide with rows spaced 76 cm apart. Seeds were spaced 18 cm apart within the rows. The field was managed using conventional tillage practices. […] Results are summarized in Table 1 and are the means of the three replicates. […] Colby's Equation (Colby, S. R. “Calculating Synergistic and Antagonistic Responses of Herbicide Combinations,” Weeds, 15(1), pp 20-22 (1967)) calculates the expected additive effect of herbicidal mixtures, and for two active ingredients is of the form:
(§6) Pa+b=Pa+Pb−(PaPb/100) • wherein Pa+b is the percentage effect of the mixture expected from additive contribution of the individual components, • Pa is the observed percentage effect of the first active ingredient at the same use rate as in the mixture, and • Pb is the observed percentage effect of the second active ingredient at the same use rate as in the mixture.

velvetleaf (ABUTH) [5] = test: Test 1 field trial, preemergence; format: in vivo, Abutilon theophrasti; parameters: scale not given here; settings: g a.i./ha: Atrazine 1680, S-Metolachlor 1870
Text: as §5, §6

[6] = system: common lambsquarters (CHEAL); test: Test 5 field trial, postemergence; format: in vivo, Chenopodium album; settings: atrazine 1120, glufosinate 470 or glyphosate 1120 g a.i./ha alone
Text: as §1

yellow foxtail (SETLU) [7] = test: Test 6 field trial, postemergence; format: in vivo, Setaria glauca; settings: 1120 g a.i./ha
Text: as §2

[8] = system: tropical spiderwort (COMBE); test: Test 11 field trial, preemergence; format: in vivo, Commelina benghalensis; parameters: scale not given here
Text: as §3, §4

southern sandbur (CCHEC) = test: Test 11 field trial, preemergence; format: in vivo, Cenchrus echinatus; parameters: scale not given here
Text: as §3, §4

goosegrass (ELEIN) = test: Test 11 field trial, preemergence; format: in vivo, Eleusine indica
Text: as §3, §4

[9] = 16 DAA, atrazine 1500 or metolachlor 2500 g a.i./ha alone
[10] = 30 DAA, atrazine 1500 or metolachlor 2500 g a.i./ha alone
[11] = 44 DAA, atrazine 1500 or metolachlor 2500 g a.i./ha alone
[12] = 62 DAA, 1500 g a.i./ha, scale 0 to 100
[13] = 62 DAA, atrazine 1500 or metolachlor 2500 g a.i./ha alone
[14] = 91 DAA, atrazine 1500 or metolachlor 2500 g a.i./ha alone
[15] = 16 DAA, Cpd 2/Cpd 1 at 62 g a.i./ha, alone or + atrazine 1500 or metolachlor 2500
[16] = 16 DAA, Cpd 2/Cpd 1 at 125 g a.i./ha, alone or + atrazine 1500 or metolachlor 2500
[17] = 30 DAA, Cpd 2/Cpd 1 at 62 g a.i./ha, alone or + atrazine 1500 or metolachlor 2500
[18] = 30 DAA, Cpd 2/Cpd 1 at 125 g a.i./ha, alone or + atrazine 1500 or metolachlor 2500
[19] = 44 DAA, 62 g a.i./ha, scale 0 to 100
[20] = 44 DAA, 125 g a.i./ha, scale 0 to 100
[21] = 62 DAA, 62 g a.i./ha, scale 0 to 100
[22] = 62 DAA, 125 g a.i./ha, scale 0 to 100
[23] = 44 DAA, Cpd 2/Cpd 1 at 62 g a.i./ha, alone or + atrazine 1500 or metolachlor 2500
[24] = 44 DAA, Cpd 2/Cpd 1 at 125 g a.i./ha, alone or + atrazine 1500 or metolachlor 2500
[25] = 62 DAA, Cpd 2/Cpd 1 at 62 g a.i./ha, alone or + atrazine 1500 or metolachlor 2500
[26] = 62 DAA, Cpd 2/Cpd 1 at 125 g a.i./ha, alone or + atrazine 1500 or metolachlor 2500
[27] = 91 DAA, Cpd 2/Cpd 1 at 62 g a.i./ha, alone or + atrazine 1500 or metolachlor 2500
[28] = 91 DAA, Cpd 2/Cpd 1 at 125 g a.i./ha, alone or + atrazine 1500 or metolachlor 2500

Structure (SMILES): CCNc1nc(Cl)nc(NC(C)C)n1 [Atrazine, atrazine, reference compound]
- AMBEL Obs (common ragweed (AMBEL); 16 DAA): 45%
- AMBEL Obs (common ragweed (AMBEL); 31 DAA): 30%
- ABUTH Obs (velvetleaf (ABUTH) [1]; 14 DAA): 0%
- ABUTH Obs (velvetleaf (ABUTH) [1]; 28 DAA): 0%
- ABUTH Obs (velvetleaf (ABUTH) [2]; 19 DAA): 87%
- ABUTH Obs (velvetleaf (ABUTH) [2]; 29 DAA): 99%
- ABUTH Obs (velvetleaf (ABUTH) [2]; 56 DAA): 98%
- POLPY Obs ([3]; 14 DAA): 73%
- POLPY Obs ([3]; 28 DAA): 83%
- CAPBP Obs (shepherd's purse (CAPBP); 16 DAA): 95%
- CAPBP Obs (shepherd's purse (CAPBP); 31 DAA): 100%
- SIDRH Obs (arrowleaf sida (SIDRH); [9]): 97
- SIDRH Obs (arrowleaf sida (SIDRH); [10]): 100
- SIDRH Obs (arrowleaf sida (SIDRH); [11]): 95
- SIDRH Obs (arrowleaf sida (SIDRH); [12]): 80
- SIDRH Obs (arrowleaf sida (SIDRH); 91 DAA, 1500 g a.i./ha, scale 0 to 100): 90
- SETFA Obs (giant foxtail (SETFA); 14 DAA): 0%
- SETFA Obs (giant foxtail (SETFA); 28 DAA): 0%
- SETLU Obs (yellow foxtail (SETLU) [4]): 0
- ABUTH Obs (velvetleaf (ABUTH) [5]; 28 DAA): 75
- ABUTH Obs (velvetleaf (ABUTH) [5]; 56 DAA): 0
- CHEAL Obs ([6]; 16 DAA): 79%
- CHEAL Obs ([6]; 31 DAA): 70%
- SETLU Obs (yellow foxtail (SETLU) [7]; 14 DAA): 0%
- SETLU Obs (yellow foxtail (SETLU) [7]; 28 DAA): 0%
- COMBE Obs [8, 9]: 99
- COMBE Obs [8, 10]: 100
- COMBE Obs [8, 11]: 100
- COMBE Obs [8, 13]: 97
- COMBE Obs [8, 14]: 95
- CCHEC Obs (southern sandbur (CCHEC); [9]): 60
- CCHEC Obs (southern sandbur (CCHEC); [10]): 40
- CCHEC Obs (southern sandbur (CCHEC); [11]): 40
- CCHEC Obs (southern sandbur (CCHEC); [13]): 0
- CCHEC Obs (southern sandbur (CCHEC); [14]): 0
- ELEIN Obs (goosegrass (ELEIN); [10]): 95
- ELEIN Obs (goosegrass (ELEIN); [11]): 100
- ELEIN Obs (goosegrass (ELEIN); [12]): 100

Structure (SMILES): Nc1nc(C2CC2)nc(C(=O)O)c1Cl [Compound 1, 6-amino-5-chloro-2-cyclopropyl-4-pyrimidinecarboxylic acid]
- SIDRH Obs (arrowleaf sida (SIDRH); [15]): 40
- SIDRH Obs (arrowleaf sida (SIDRH); [16]): 75
- SIDRH Obs (arrowleaf sida (SIDRH); [17]): 60
- SIDRH Obs (arrowleaf sida (SIDRH); [18]): 65
- SIDRH Obs (arrowleaf sida (SIDRH); [19]): 75
- SIDRH Obs (arrowleaf sida (SIDRH); [20]): 95
- SIDRH Obs (arrowleaf sida (SIDRH); [21]): 40
- SIDRH Obs (arrowleaf sida (SIDRH); [22]): 95
- SIDRH Obs (arrowleaf sida (SIDRH); 91 DAA, 62 g a.i./ha, scale 0 to 100): 0
- SIDRH Obs (arrowleaf sida (SIDRH); 91 DAA, 125 g a.i./ha, scale 0 to 100): 100
- COMBE Obs [8, 15]: 40
- COMBE Obs [8, 16]: 60
- COMBE Obs [8, 17]: 60
- COMBE Obs [8, 18]: 95
- COMBE Obs [8, 23]: 60
- COMBE Obs [8, 24]: 95
- COMBE Obs [8, 25]: 40
- COMBE Obs [8, 26]: 60
- COMBE Obs [8, 27]: 0
- COMBE Obs [8, 28]: 70
- CCHEC Obs (southern sandbur (CCHEC); [15]): 40
- CCHEC Obs (southern sandbur (CCHEC); [16]): 40
- CCHEC Obs (southern sandbur (CCHEC); [17]): 20
- CCHEC Obs (southern sandbur (CCHEC); [18]): 20
- CCHEC Obs (southern sandbur (CCHEC); [23]): 0
- CCHEC Obs (southern sandbur (CCHEC); [24]): 40
- CCHEC Obs (southern sandbur (CCHEC); [25]): 0
- CCHEC Obs (southern sandbur (CCHEC); [26]): 0
- CCHEC Obs (southern sandbur (CCHEC); [27]): 0
- CCHEC Obs (southern sandbur (CCHEC); [28]): 0
- ELEIN Obs (goosegrass (ELEIN); [17]): 0
- ELEIN Obs (goosegrass (ELEIN); [18]): 20
- ELEIN Obs (goosegrass (ELEIN); [19]): 0
- ELEIN Obs (goosegrass (ELEIN); [20]): 0
- ELEIN Obs (goosegrass (ELEIN); [21]): 0
- ELEIN Obs (goosegrass (ELEIN); [22]): 0

Structure (SMILES): O=C(O)CNCP(=O)(O)O [Glyphosate]
- AMBEL Obs (common ragweed (AMBEL); 16 DAA): 84%
- AMBEL Obs (common ragweed (AMBEL); 31 DAA): 100%
- ABUTH Obs (velvetleaf (ABUTH) [1]; 14 DAA): 99%
- ABUTH Obs (velvetleaf (ABUTH) [1]; 28 DAA): 100%
- POLPY Obs ([3]; 14 DAA): 84%
- POLPY Obs ([3]; 28 DAA): 91%
- CAPBP Obs (shepherd's purse (CAPBP); 16 DAA): 98%
- CAPBP Obs (shepherd's purse (CAPBP); 31 DAA): 100%
- SETFA Obs (giant foxtail (SETFA); 14 DAA): 100%
- SETFA Obs (giant foxtail (SETFA); 28 DAA): 100%
- CHEAL Obs ([6]; 16 DAA): 100%
- CHEAL Obs ([6]; 31 DAA): 97%
- SETLU Obs (yellow foxtail (SETLU) [7]; 14 DAA): 97%
- SETLU Obs (yellow foxtail (SETLU) [7]; 28 DAA): 96%

Structure (SMILES): CCc1cccc(C)c1N(C(=O)CCl)[C@@H](C)COC [S-Metolachlor, S-metolachlor, reference compound]
- ABUTH Obs (velvetleaf (ABUTH) [2]; 19 DAA): 28%
- ABUTH Obs (velvetleaf (ABUTH) [2]; 29 DAA): 42%
- ABUTH Obs (velvetleaf (ABUTH) [2]; 56 DAA): 18%
- SETLU Obs (yellow foxtail (SETLU) [4]): 100
- ABUTH Obs (velvetleaf (ABUTH) [5]; 28 DAA): 33
- ABUTH Obs (velvetleaf (ABUTH) [5]; 56 DAA): 0
